Results published in ChEMBL document CHEMBL1127488, “Interaction of tetrahydrostilbazoles with monoamine oxidase A and B” (J Med Chem, 1994).

Biological target: T1, Amine oxidase [flavin-containing] A (Homo sapiens, UniProt P21397)
T1 sequence (P21397 whole entry): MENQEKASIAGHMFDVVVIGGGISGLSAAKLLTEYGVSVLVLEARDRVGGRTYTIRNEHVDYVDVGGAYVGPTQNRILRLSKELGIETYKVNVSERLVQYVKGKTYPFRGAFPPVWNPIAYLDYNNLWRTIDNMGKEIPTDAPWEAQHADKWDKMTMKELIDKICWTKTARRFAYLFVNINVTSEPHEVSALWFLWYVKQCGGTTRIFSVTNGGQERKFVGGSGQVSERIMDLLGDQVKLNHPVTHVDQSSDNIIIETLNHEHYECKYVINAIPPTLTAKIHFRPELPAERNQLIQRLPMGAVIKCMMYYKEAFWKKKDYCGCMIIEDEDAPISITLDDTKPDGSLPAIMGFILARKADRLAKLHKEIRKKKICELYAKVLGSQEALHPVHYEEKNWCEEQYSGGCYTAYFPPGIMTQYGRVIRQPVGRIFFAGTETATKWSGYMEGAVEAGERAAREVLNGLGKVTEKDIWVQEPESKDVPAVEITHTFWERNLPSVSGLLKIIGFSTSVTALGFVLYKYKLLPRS
Experiment: Compound was tested for the inhibition of monoamine oxidase A (MAO A) from human liver

## C[C@@H]1NC(=O)[C@H](NC(=O)[C@@H](N)Cc2ccc(O)cc2)C(C)(C)SSC(C)(C)[C@@H](C(O)O)NC(=O)[C@H](Cc2ccccc2)NC1=O
  Ki: 2000 nM
